Source: patent US4526890A, “3,6,7,8-Substituted-s-triazolo[4,3-b]pyridazines as bronchodilators” (The Dow Chemical Company, priority 1981, dated 1985)
Counter-ions that a name gives are not always drawn.

Key:
[1] = Audiogenic convulsive side effects (sound challenge: tonic convulsions and fatalities); settings: mouse, ip
Description: (§1) The interaction of sound with the convulsive threshold of drugs is a known phenomenon which can be used to evaluate such side effects. […] In a procedure for pharmacological evaluation, the lowering of the convulsive threshold, or the lowering of the LD50, by sound can be studied in mice.
(§2) In the test operations, mice are administered a test compound by intraperitoneal injection at various dosages, and the number of mice showing tonic convulsions and the number of fatalities occurring within 30 minutes is recorded.
The sound exposure is carried out by placing the mice in a sound insulated cage with a bell which emits 120 decibels of sound, and activating the bell for two minutes. The number of tonic convulsions and fatalities are then recorded to determine the ED50 and LD50 in the presence of the sound challenge.

[2] = 30 minute LD50 (acute toxicity without sound); settings: mouse, in vivo, ip
Description: as §1, §2

[3] = system: histamine-induced bronchoconstriction; test: Bronchodilator activity in the Konzett-Rossler guinea pig preparation (histamine-induced bronchoconstriction); assay type: in vivo; parameters: key to Histamine Blockade: % blockade = 100 − (post-dose response / mean of 3 prior) × 100; settings: for Histamine Blockade: table 7, intravenous, 3 mg/kg except as otherwise indicated, aminophylline 10 mg/kg; for percent blockade of histamine / percent of aminophylline activity: 3 mg/kg intravenously; for percent blockade of histamine: 2 minutes prior to histamine; for percent of aminophylline activity: aminophylline 10 mg/kg for comparison, histamine agonist
Description: Bronchodilator activity of representative triazolopyridazine compounds of the invention is examined in the Konzett-Rossler quinea pig preparation according to accepted procedures. See Knozett and Rossler; Arch. f. Exp. Path. u. Pharmakol. […] Int. Pharmacodyn. […] In this procedure an anesthetized guinea pig is artificially respired with a fixed volume of air. The volume of air is selected to slightly exceed the capacity of the guinea pig's lungs, and the excess air or "overflow" is measured. Test compounds are evaluated by administering a test compound intravenously 2 minutes prior to administration of an agonist compound (histamine, serotonin or acetylcholine) following 3 previous agonist doses resulting in relatively uniform (±10 percent) bronchoconstriction. […] This is calculated by dividing the "overflow" agonist response measured after administration of the test compound by the average of the 3 preceding agonist responses, multiplying by 100 and subtracting this value from 100 percent.

[4] = system: histamine aerosol; test: Histamine aerosol exposure (collapse time); assay type: in vivo, guinea pigs; settings: challenged two hours after intraperitoneal injection, collapse time > mean + two SD of controls; for ED50: Cavia porcellus, ip, 2 h
Description: In another procedure, test compounds were administered to guinea pigs by intraperitoneal injection and the guinea pigs were challenged two hours later by exposure to a histamine aerosol. Untreated animals collapse when exposed to the histamine aerosol. […] The ED50 's of representative compounds are set out in the following table.

[5] = system: mice; settings: U.S. Pat. No. 4,136,182; in words; cited from earlier work

c1nnc2c3c(c(N4CCOCC4)nn12)C1CCC3CC1 [Example 17]
LD50 ([1]; in vivo): 85 mg/kg | TD50 [1]: 62 mg/kg | LD50 at 0.5 h [2]: 118 mg/kg | Histamine Blockade [3]: 58

CCc1nnc2c3c(c(N4CCCC4)nn12)CCCC3 [Example 51]
ED50 [4]: < 2.5 mg/kg

CN1CCN(c2nn3cnnc3c3c2C2CCC3C2)CC1 (stereo not shown) [Example 5, 7,8,9,10-tetrahydro-6-[4-methyl-1-piperazinyl)-7,10-methano(1,2,4)triazolo[3,4-a]phthalazine]
LD50 ([1]; in vivo): 147 mg/kg | TD50 [1]: 147 mg/kg | LD50 at 0.5 h [2]: 175 mg/kg | Histamine Blockade [3]: 92

Cc1c(N2CCCC2)nn2cnnc2c1C [7,8-Dimethyl-6-pyrrolidino-s-triazolo[4,3-b]pyridazine]
LD50 ([1]; in vivo): 277 mg/kg | TD50 ([1]; in vivo): 277 mg/kg | LD50 at 0.5 h [2]: 277 mg/kg | percent blockade of histamine [3]: 65% | percent of aminophylline activity [3]: 67% | Histamine Blockade [3]: 62

Cc1cc2nncn2nc1N1CCCC1 [Example 3, 7-methyl-6-pyrrolidino-s-triazolo[4,3-b]pyridazine]
LD50 ([1]; in vivo): 176 mg/kg | TD50 [1]: 141 mg/kg | LD50 at 0.5 h [2]: 272 mg/kg | Histamine Blockade [3]: 43

Cn1c(=O)c2[nH]cnc2n(C)c1=O [Aminophylline, reference compound]
inhibition in vivo at 10 mg/kg ([3]; Cavia porcellus, iv, read-out: Histamine Blockade): 37%

CN1CCN(c2nn3cnnc3c3c2CCCC3)CC1 [Example 27, 6-(4-methyl-1-piperazinyl)-7,8-tetramethylene(1,2,4)triazolo[4,3-b]pyridazine]
LD50 ([1]; in vivo): 134 mg/kg | TD50 [1]: 134 mg/kg | LD50 at 0.5 h [2]: 147 mg/kg | Histamine Blockade [3]: 91

CCc1nnc2c3c(c(N4CCN(C)CC4)nn12)CCCC3 [Example 53]
ED50 [4]: 36.4 mg/kg

Cc1nnc2c3c(c(N4CCCC4)nn12)C1CCC3C1 (stereo not shown) [Example 10]
LD50 ([1]; in vivo): 85 mg/kg | TD50 [1]: 85 mg/kg | LD50 at 0.5 h [2]: 85 mg/kg | Histamine Blockade [3]: 95

Cc1cc2nncn2nc1N1CCN(C)CC1 [Example 4, 7-Methyl-6-N-methylpiperazino-s-triazolo[4,3-b]pyridazine]
LD50 ([1]; in vivo): 140 mg/kg | TD50 ([1]; in vivo): 116 mg/kg | LD50 at 0.5 h [2]: 272 mg/kg | percent blockade of histamine [3]: 39% | Histamine Blockade [3]: 39

CN1CCN(c2nn3cnnc3c3c2C2CCC3CC2)CC1 [Example 21]
LD50 ([1]; in vivo): 147 mg/kg | TD50 [1]: 113 mg/kg | LD50 at 0.5 h [2]: 147 mg/kg | Histamine Blockade [3]: 82

c1nnc2c3c(c(N4CCCC4)nn12)C1CCC3CC1 [Example 15]
LD50 ([1]; in vivo): 117 mg/kg | TD50 [1]: 117 mg/kg | LD50 at 0.5 h [2]: 136 mg/kg | Histamine Blockade [3]: 66

CC(C)c1nnc2c3c(c(N4CCCC4C)nn12)CCCC3 (stereo not shown) [Example 55]
ED50 [4]: ~7.9 mg/kg

c1nnc2c3c(c(N4CCCC4)nn12)CCCC3 [Example 24, 6-(1-pyrrolidinyl)-7,8,9,10-tetrahydro(1,2,4)triazolo[3,4-a]phthalazine]
LD50 ([1]; in vivo): 170 mg/kg | TD50 [1]: 150 mg/kg | LD50 at 0.5 h [2]: 191 mg/kg | percent blockade of histamine [3]: 100% | percent of aminophylline activity [3]: 105% | Histamine Blockade [3]: 86

Cc1c(N2CCCCC2)nn2c(C)nnc2c1C [R7 Methyl; R3 CH3; R8 CH3; R6 Piperidino, 6-Piperidino-3,7,8-trimethyl-s-triazolo[4,3-b]pyridazine]
LD50 ([1]; in vivo): 141 mg/kg | TD50 ([1]; in vivo): 141 mg/kg | LD50 at 0.5 h [2]: 141 mg/kg | Histamine Blockade [3]: 30

CNc1nn2cnnc2c2c1CCCC2 [Example 31]
ED50 [4]: 4 mg/kg

Cc1c(N2CCCCC2)nn2cnnc2c1C [R7 Methyl; R3 H; R8 CH3; R6 Piperidino, 6-Piperidino-7,8-dimethyl-s-triazolo[4,3-b]pyridazine]
LD50 ([1]; in vivo): 404 mg/kg | TD50 ([1]; in vivo): 404 mg/kg | LD50 at 0.5 h [2]: 404 mg/kg | Histamine Blockade [3]: 45

O=C1C[C@@H]2OCC=C3CN4CC[C@]56c7ccccc7N1[C@H]5[C@H]2[C@H]3C[C@H]46 [strychnine]
change in toxicity with sound [5]: no significant change in toxicity with sound

c1nnc2c3c(c(N4CCCCCC4)nn12)CCCC3 [Example 29, 6-(hexahydro-1H-azepin-1-yl)-7,8-tetramethylene(1,2,4)triazolo[4,3-b]pyridazine]
ED50 [4]: 5 mg/kg

CC1CCCN(c2nn3cnnc3c3c2CCCC3)C1 (stereo not shown) [Example 33]
ED50 [4]: 1.8 mg/kg

c1nnc2c3c(c(N4CCOCC4)nn12)CCCC3 [6-Morpholino-7,8-tetramethylene-s-triazolo[4,3-b]pyridazine]
selectivity ratio ([1]; in vivo): 3.8 | percent blockade of histamine [3]: 75% | percent of aminophylline activity [3]: 113%

CCc1nnc2c3c(c(N4CCCN(C)CC4)nn12)CCCC3 [Example 46]
ED50 (histamine aerosol exposure) ([4]; 120 min): < 5 mg/kg i.p.

c1nnc2c3c(c(N4CCCCC4)nn12)CCCC3 [Example 25, 6-piperidino-7,8-tetramethylene-s-triazolo[4,3-b]pyridazine]
LD50 ([1]; in vivo): 298 mg/kg | TD50 [1]: 283 mg/kg | LD50 at 0.5 h [2]: 298 mg/kg | Histamine Blockade [3]: 72

Cc1nnc2c3c(c(N4CCN(C)CC4)nn12)C1CCC3C1 (stereo not shown) [Example 13]
LD50 ([1]; in vivo): 147 mg/kg | TD50 ([1]; in vivo): 147 mg/kg | LD50 at 0.5 h [2]: 147 mg/kg | Histamine Blockade [3]: 97

Cc1nnc2c3c(c(N4CCCC4)nn12)C1CCC3CC1 [Example 18]
LD50 ([1]; in vivo): 141 mg/kg | TD50 ([1]; in vivo): 141 mg/kg | LD50 at 0.5 h [2]: 141 mg/kg | Histamine Blockade [3]: 55

Cc1cc2nncn2nc1N1CCOCC1 [7-Methyl-6-morpholino-s-triazolo[4,3-b]pyridazine]
LD50 ([1]; in vivo): 280 mg/kg | TD50 [1]: 45 mg/kg | LD50 at 0.5 h [2]: 327 mg/kg | bronchodilator activity ([3]; in words): desirable bronchodilator activity

CN(C)c1nn2cnnc2c2c1CCCC2 [Example 32]
ED50 [4]: 2.5 mg/kg

Cc1nnc2c3c(c(N4CCOCC4)nn12)CCCC3 [6-Morpholino-3-methyl-7,8-tetramethylene-s-triazolo[4,3-b]pyridazine]
LD50 ([1]; in vivo): 126 mg/kg | selectivity ratio ([1]; in vivo): ~1.18 | TD50 [1]: 90 mg/kg | LD50 at 0.5 h [2]: 149 mg/kg | Histamine Blockade [3]: 61

CC1CCCN1c1nn2cnnc2c2c1CCCC2 (stereo not shown) [Example 30, 6-(2-methylpyrrolidinyl)-7,8-tetramethylene(1,2,4)triazolo[4,3-b]pyridazine]
ED50 [4]: 1.6 mg/kg

CC(C)c1nnc2c3c(c(N4CCCC4)nn12)CCCC3 [Example 56]
ED50 [4]: ~5.1 mg/kg

Cc1c(N2CCOCC2)nn2cnnc2c1C [R7 Methyl; R3 H; R8 CH3; R6 Morpholino, 6-Morpholino-7,8-dimethyl-s-triazolo[4,3-b]pyridazine]
LD50 ([1]; in vivo): 272 mg/kg | TD50 ([1]; in vivo): 272 mg/kg | LD50 at 0.5 h [2]: 272 mg/kg | Histamine Blockade [3]: 46

CC1CCN(c2nn3cnnc3c3c2CCCC3)CC1 [Example 34]
ED50 [4]: 1.3 mg/kg

Cc1nnc2c3c(c(N4CCOCC4)nn12)C1CCC3C1 (stereo not shown) [Example 6, 7,8,9,10-tetrahydro-3-methyl-6-(4-morpholinyl)-7,10-methano(1,2,4)triazolo[3,4-a]phthalazine]
LD50 ([1]; in vivo): 74 mg/kg | TD50 [1]: 61 mg/kg | LD50 at 0.5 h [2]: 86 mg/kg | Histamine Blockade [3]: 76

Cc1nnc2c3c(c(N4CCCCC4)nn12)CCCC3 [6-Piperidino-3-methyl-7,8-tetramethylene-s-triazolo[4,3-b]pyridazine]
LD50 ([1]; in vivo): 139 mg/kg | TD50 [1]: 125 mg/kg | LD50 at 0.5 h [2]: 139 mg/kg | Histamine Blockade [3]: 38

Cc1nnc2c3c(c(N4CCCN(C)CC4)nn12)CCCC3 [44 (dihydrochloride)]
ED50 [4]: 23.8 mg/kg

Cc1nnc2c3c(c(N(C)C)nn12)CCCC3 [Example 39]
ED50 [4]: 2.2 mg/kg

c1nnc2c3c(c(N4CCCCC4)nn12)C1CCC3C1 (stereo not shown) [Example 8]
LD50 ([1]; in vivo): 98 mg/kg | TD50 [1]: 90 mg/kg | LD50 at 0.5 h [2]: 108 mg/kg | Histamine Blockade [3]: 84

c1nnc2c3c(c(N4CCCC4)nn12)C1CCC3C1 (stereo not shown) [Example 7]
LD50 ([1]; in vivo): 100 mg/kg | TD50 [1]: 93 mg/kg | LD50 at 0.5 h [2]: 136 mg/kg | Histamine Blockade [3]: 87

CNc1nn2c(C)nnc2c2c1CCCC2 [Example 38]
ED50 [4]: 2.1 mg/kg

CCc1nnc2c3c(c(N4CCCN(C)CC4)nn12)CCCC3 [Example 45]
ED50 [4]: 5 mg/kg

Cc1nnc2c3c(c(N4CCN(C)CC4)nn12)C1CCC3CC1 [Example 23]
LD50 ([1]; in vivo): 147 mg/kg | TD50 ([1]; in vivo): 147 mg/kg | LD50 at 0.5 h [2]: 147 mg/kg | Histamine Blockade [3]: 90

Cc1cc2nnc(C)n2nc1N1CCCCC1 [3,7-dimethyl-6-piperidino-s-triazolo[4,3-b]pyridazine]
LD50 ([1]; in vivo): 327 mg/kg | TD50 [1]: 260 mg/kg | LD50 at 0.5 h [2]: 327 mg/kg | percent blockade of histamine [3]: 48% | Histamine Blockade [3]: 48

CCc1nnc2c3c(c(N4CCCCCC4)nn12)CCCC3 [Example 47]
ED50 [4]: ~4.95 mg/kg
